Source: patent publication US6335367B1 (priority 1999, dated 2002)

Assays:
Format in all cases: in vivo
[1] = system: Mexican bean beetle Epilachiba varivestis; assay: Insecticidal leaf disk test, Mexican bean beetle (BB); settings: 300 grams/hectare; sprayed leaf disk; visual inspection 24-48 hours after spraying
Description: (§1) Numerous compounds of this invention were tested for insecticidal activity in vivo against the insects described below. The following test method was used to evaluate compounds of the present invention for insecticidal activity. The compound to be evaluated was dissolved in an appropriate solvent, usually a mix of acetone, methanol and water, and sprayed over three excised leaf disks using a flat fan nozzle. After spraying, the leaf disks were allowed to dry. Two disks were infested with the leaf chewing insects (southern armyworm and Mexican bean beetle) and the third leaf disk was already infested with the two-spotted spider mite prior to spraying. The tested insect species were:
BB Mexican bean beetle Epilachiba varivestis
(§2) Observations as percent control were made by visual inspection 24-48 hours after spraying.

[2] = system: Pucciitia recoitdita (f. sp. tritici); settings: 300 grams per hectare; protective spray, inoculated one day after treatment; evaluated after 12 days
Plasiitopara viticola = assay: Grape Downy Mildew (GDM) protective test on grape plants; settings: 300 grams/hectare; protective spray; seven days after inoculation
Description: Numerous compounds of this invention were tested for fungicidal activity in vivo against the diseases described below. The compounds were dissolved a 1:1 mixture of acetone and methanol or N, N-dimethylformamide and diluted with a 2:1:1 mixture of water, acetone, and methanol (by volume) or water, respectively, to achieve the appropriate concentration. The solution was sprayed onto the plants, and allowed to dry (two hours). Then the plants were inoculated with fungal spores. Each test utilized control plants which were sprayed with the appropriate solvent mixture and inoculated. For these protective tests, the plants were inoculated one day after treating the plants with the fungicide compound. The remainder of the technique of each of the tests is given below along with the results for various compounds described herein by the Compound # against the various fungi at a dose of 300 grams per hectare. The results are percent disease control are compared to the untreated check wherein one hundred was rated as complete disease control and zero as no disease control.
Plasiitopara viticola was maintained on leaves of grape plants, cultivar. Delaware, in a controlled temperature chamber at 20° C. in humid air with moderate light intensity for 7 to 8 days. A water suspension of the spores from infested leaves was obtained and the spore concentration was adjusted to about 3×10^5 per ml of water. Delaware grape plants were inoculated by spraying the underside of leaves with a DeVilbiss atomizer until small drops were observed on the leaves. The inoculated plants were incubated in a mist chamber for 24 hours at 20° C. The plants were then removed to a controlled environmental room at 20° C. Disease control values were recorded as percent control seven days after inoculation.

[3] = system: two-spotted spider mite Teranychus uricate; assay: Insecticidal leaf disk test, two-spotted spider mite (MTA); settings: 300 grams/hectare; leaf disk infested prior to spraying; visual inspection 24-48 hours after spraying
Description: as §1
MTA two-spotted spider mite Teranychus uricate
as §2

Structure (SMILES)	percent control, Mexican bean beetle [1]	percent disease control, wheat leaf rust [2]	percent disease control, grape downy mildew (Plasiitopara viticola)	percent control, two-spotted spider mite [3]
COC=C(C(=O)OC)c1ccccc1COc1cccc(C2CC2C(C)=NOC)c1 (single isomer, unassigned) [Compound 1.18A]	100%	100%	100%	100%
COC=C(C(=O)OC)c1ccccc1COc1cccc(C2CC2C(C)=NOC)c1 (single isomer, unassigned) [Compound 1.18B]	100%	100%	100%	100%
CCON=C(C1CC1)C1CC1c1cccc(OCc2ccccc2C(=COC)C(=O)OC)c1 (single isomer, unassigned) [Compound 1.108A]	100%	100%	100%	100%
CCON=C(C1CC1)C1CC1c1cccc(OCc2ccccc2C(=COC)C(=O)OC)c1 (single isomer, unassigned) [Compound 1.108B]		100%	100%	
CNC(=O)C(=NOC)c1ccccc1COc1cccc(C2CC2C(C)=NOC)c1 (single isomer, unassigned) [Compound 3.18A]		100%		
CNC(=O)C(=NOC)c1ccccc1COc1cccc(C2CC2C(C)=NOC)c1 (single isomer, unassigned) [Compound 3.18B]		100%	100%	
COC=C(C(=O)OC)c1ccccc1COc1cccc(C2CC2C(=NOC)c2ccc(Cl)cc2)c1 (stereo not shown) [Compound 1.04]		100%		100%
CCCCCCC(=NOC)C1CC1c1cccc(OCc2ccccc2/C(=C\OC)C(=O)OC)c1 (stereo not drawn) [Compound 1.23, Methyl (E)-3-methoxy-2-trans-[2-(3-(2-(methoximinohept-1-yl)cyclopropyl)-phenoxymethyl)phenyl]-2-propenoate]	100%		100%	100%
COC=C(C(=O)OC)c1ccccc1COc1cccc(C2CC2C(CC(C)C)=NOC)c1 (stereo not shown) [Compound 1.24]	100%		100%	100%
COC=C(C(=O)OC)c1ccccc1COc1cccc(C2CC2C(=NOC)C2CC=C(C)CC2)c1 (stereo not shown) [Compound 1.33]	100%			100%
CO/C=C(/C(=O)OC)c1ccccc1COc1cccc(C2CC2C(=NOC)C2CC2)c1 (stereo not drawn) [Compound 1.34, Methyl (E)-3-methoxy-2-trans-[2-(3-(2-(methoximinocycloprop-1-yl)cyclopropyl)phenoxymethyl)phenyl]-2-propenoate]	100%	100%	100%	100%
COC=C(C(=O)OC)c1ccccc1COc1cccc(C2CC2C(=NOC(C)(C)C)C2CC2)c1 (stereo not shown) [Compound 1.110]	100%			100%
COC=C(C(=O)OC)c1ccccc1COc1cccc(C2CC2C(=NOCc2ccccc2)C2CC2)c1 (stereo not shown) [Compound 1.115]	100%		100%	100%
CNC(=O)C(=NOC)c1ccccc1COc1cccc(C2CC2C(=NOC)C2CC2)c1 (stereo not shown) [Compound 3.34]		100%	100%	
CCC(C)C(NNc1ccccc1)=C1CC1c1cccc(OCc2ccccc2/C(=C\OC)C(=O)OC)c1 (stereo not drawn) [Compound 4.17, Methyl (E)-3-methoxy-2-trans-[2-(3-(2-(2-ethyl-1-(2-phenylhydrazino)propylidene)cyclopropyl)phenoxymethyl)phenyl]-2-propenoate]		100%		
COC=C(C(=O)OC)c1ccccc1COc1cccc(C2CC2C(=NNC(=O)c2ccccc2)C2CC2)c1 (stereo not drawn) [Compound 4.98, Methyl (E)-3-methoxy-2-trans-[2-(3-(2-(1-(N-benzoylhydrazinomethylidine)cycloprop-1-yl)cyclopropyl)phenoxymethyl)phenyl]-2-propenoate]		100%		
